Source: US6355799B1, “Substituted benzene compounds, process for their preparation, and herbicidal and defoliant compositions containing them” (ISK Americas Incorporated, priority 1997, dated 2002)

Columns and labels:
Format in all cases: in vivo
[1] = test system: field corn (Zea mays L., var. Dekalb 535, CORN); assay: Pre-emerge test, crop safety; details: crop damage, pre-emerge, phytotoxicity rating 0-100 at 14 days after application
Procedure, shortened: (§1)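 Visual ratings on a 0-100 scale (0 no damage, 100 all plants dead) were taken at 14 days after treatment. Rates of 15-1000 g ai/ha in acetone, 187 l/ha, were sprayed onto soil one day after planting (pre-emerge) or onto 2-3 leaf plants with 0.25% v/v surfactant (post-emerge).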

[2] = test system: upland rice (Oryza sp., var. Tebonnet, RICE); assay: Pre-emerge test, crop safety; details: crop damage, pre-emerge, phytotoxicity rating 0-100 at 14 days after application
Procedure, shortened: as §1

[3] = test system: field corn (Zea mays L., var. Dekalb 535, CORN); assay: Post-emerge test, crop safety; details: post-emerge, crop damage rating 0-100 at 14 days after application
Procedure, shortened: (§2)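 Compounds in acetone were track-sprayed at 15-1000 g ai/ha (187 l/ha) on sandy loam pots: pre-emerge one day after seeding, post-emerge at 2-3 leaf stage with 0.25% v/v non-ionic surfactant. Phytotoxicity was rated 14 days later on a 0 (no damage) to 100 (complete death) scale.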

[4] = test system: upland rice (Oryza sp., var. Tebonnet, RICE); assay: Post-emerge test, crop safety; details: post-emerge, crop damage rating 0-100 at 14 days after application
Procedure, shortened: as §2

[5] = test system: redroot pigweed (Amaranthus retroflexus, AMARE); assay: Pre-emerge test, greenhouse herbicide activity screening; details: pre-emerge, phytotoxicity rating 0-100 at 14 days after application
Procedure, shortened: as §2

[6] = test system: large crabgrass (Digitaria sanguinalis, DIGSA); assay: Post-emerge test, greenhouse herbicide activity screening; details: post-emerge, phytotoxicity rating 0-100 at 14 days after application
Procedure, shortened: (§3)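 Applied at 15–1000 g ai/ha from acetone in 187 l/ha spray volume. Post-emergence applications included 0.25% v/v non-ionic surfactant and reached plants sown 8–21 days before. Pre-emergence applications were incorporated by surface watering. Efficacy or crop damage was rated on a 0–100 scale after 14 days.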

[7] = test system: green foxtail (Setaria viridis, SETVI); assay: as above; details: post-emerge, phytotoxicity rating 0-100 at 14 days after application
Procedure, shortened: as §3

[8] = test system: velvetleaf (Abutilon theophrasti, ABUTH); assay: as above; details: post-emerge, phytotoxicity rating 0-100 at 14 days after application
Procedure, shortened: as §3

[9] = test system: sicklepod (Cassia obtusifolia, CASOB); assay: as above; details: post-emerge, phytotoxicity rating 0-100 at 14 days after application
Procedure, shortened: as §3

[10] = test system: redroot pigweed (Amaranthus retroflexus, AMARE); assay: as above; details: post-emerge, phytotoxicity rating 0-100 at 14 days after application
Procedure, shortened: as §3

[11] = test system: johnsongrass (Sorghum halepense, SORHA); assay: as above; details: post-emerge, phytotoxicity rating 0-100 at 14 days after application
Procedure, shortened: as §3

[12] = test system: barnyardgrass (Echinochloa crus-galli, ECHCG); assay: as above; details: post-emerge, phytotoxicity rating 0-100 at 14 days after application
Procedure, shortened: as §3

[13] = test system: ivyleaf morningglory (Ipomoea hederacea, IPOHE); assay: as above; details: post-emerge, phytotoxicity rating 0-100 at 14 days after application
Procedure, shortened: as §3

[14] = test system: lambsquarters (Chenopodium album, CHEAL); assay: as above; details: post-emerge, phytotoxicity rating 0-100 at 14 days after application
Procedure, shortened: as §3

[15] = test system: large crabgrass (Digitaria sanguinalis, DIGSA); assay: Pre-emerge test, greenhouse herbicide activity screening; details: pre-emerge, phytotoxicity rating 0-100 at 14 days after application
Procedure, shortened: as §2

[16] = test system: green foxtail (Setaria viridis, SETVI); assay: as above; details: pre-emerge, phytotoxicity rating 0-100 at 14 days after application
Procedure, shortened: as §2

[17] = test system: velvetleaf (Abutilon theophrasti, ABUTH); assay: as above; details: pre-emerge, phytotoxicity rating 0-100 at 14 days after application
Procedure, shortened: as §2

[18] = test system: sicklepod (Cassia obtusifolia, CASOB); assay: as above; details: pre-emerge, phytotoxicity rating 0-100 at 14 days after application
Procedure, shortened: as §2

[19] = test system: johnsongrass (Sorghum halepense, SORHA); assay: as above; details: pre-emerge, phytotoxicity rating 0-100 at 14 days after application
Procedure, shortened: as §2

[20] = test system: barnyardgrass (Echinochloa crus-galli, ECHCG); assay: as above; details: pre-emerge, phytotoxicity rating 0-100 at 14 days after application
Procedure, shortened: as §2

[21] = test system: ivyleaf morningglory (Ipomoea hederacea, IPOHE); assay: as above; details: pre-emerge, phytotoxicity rating 0-100 at 14 days after application
Procedure, shortened: as §2

[22] = test system: lambsquarters (Chenopodium album, CHEAL); assay: as above; details: pre-emerge, phytotoxicity rating 0-100 at 14 days after application
Procedure, shortened: as §2

COc1cccc(OC)c1OC(=O)Nc1c(C)c(Cl)cc(F)c1-n1c(=O)cc(C(F)(F)F)n(C)c1=O [4-59]
Pre-emerge Herbicidal Activity CORN ([1]; rate 63 g ai/ha): 5
Pre-emerge Herbicidal Activity CORN ([1]; rate 250 g ai/ha): 80
Pre-emerge Herbicidal Activity RICE ([2]; rate 63 g ai/ha): 0
Pre-emerge Herbicidal Activity RICE ([2]; rate 250 g ai/ha): 70
Post-emerge Herbicidal Activity CORN ([3]; 63 g ai/ha): 5
Post-emerge Herbicidal Activity CORN ([3]; 250 g ai/ha): 25
Post-emerge Herbicidal Activity RICE ([4]; 63 g ai/ha): 50
Post-emerge Herbicidal Activity RICE ([4]; 250 g ai/ha): 60
Pre-emerge Herbicidal Activity AMARE ([5]; rate 63 g ai/ha): 100
Pre-emerge Herbicidal Activity AMARE ([5]; rate 250 g ai/ha): 100
Post-emerge Herbicidal Activity DIGSA ([6]; 63 g ai/ha): 0
Post-emerge Herbicidal Activity DIGSA ([6]; 250 g ai/ha): 20
Post-emerge Herbicidal Activity SETVI ([7]; 63 g ai/ha): 0
Post-emerge Herbicidal Activity SETVI ([7]; 250 g ai/ha): 30
Post-emerge Herbicidal Activity ABUTH ([8]; 63 g ai/ha): 100
Post-emerge Herbicidal Activity ABUTH ([8]; 250 g ai/ha): 100
Post-emerge Herbicidal Activity CASOB ([9]; 63 g ai/ha): 30
Post-emerge Herbicidal Activity CASOB ([9]; 250 g ai/ha): 60
Post-emerge Herbicidal Activity AMARE ([10]; 63 g ai/ha): 90
Post-emerge Herbicidal Activity AMARE ([10]; 250 g ai/ha): 100
Post-emerge Herbicidal Activity SORHA ([11]; 63 g ai/ha): 0
Post-emerge Herbicidal Activity SORHA ([11]; 250 g ai/ha): 30
Post-emerge Herbicidal Activity ECHCG ([12]; 63 g ai/ha): 0
Post-emerge Herbicidal Activity ECHCG ([12]; 250 g ai/ha): 20
Post-emerge Herbicidal Activity IPOHE ([13]; 63 g ai/ha): 100
Post-emerge Herbicidal Activity IPOHE ([13]; 250 g ai/ha): 100
Post-emerge Herbicidal Activity CHEAL ([14]; 63 g ai/ha): 100
Post-emerge Herbicidal Activity CHEAL ([14]; 250 g ai/ha): 100
Pre-emerge Herbicidal Activity DIGSA ([15]; rate 63 g ai/ha): 40
Pre-emerge Herbicidal Activity DIGSA ([15]; rate 250 g ai/ha): 100
Pre-emerge Herbicidal Activity SETVI ([16]; rate 63 g ai/ha): 30
Pre-emerge Herbicidal Activity SETVI ([16]; rate 250 g ai/ha): 90
Pre-emerge Herbicidal Activity ABUTH ([17]; rate 63 g ai/ha): 100
Pre-emerge Herbicidal Activity ABUTH ([17]; rate 250 g ai/ha): 100
Pre-emerge Herbicidal Activity CASOB ([18]; rate 63 g ai/ha): 20
Pre-emerge Herbicidal Activity CASOB ([18]; rate 250 g ai/ha): 90
Pre-emerge Herbicidal Activity SORHA ([19]; rate 63 g ai/ha): 40
Pre-emerge Herbicidal Activity SORHA ([19]; rate 250 g ai/ha): 95
Pre-emerge Herbicidal Activity ECHCG ([20]; rate 63 g ai/ha): 10
Pre-emerge Herbicidal Activity ECHCG ([20]; rate 250 g ai/ha): 90
Pre-emerge Herbicidal Activity IPOHE ([21]; rate 63 g ai/ha): 95
Pre-emerge Herbicidal Activity IPOHE ([21]; rate 250 g ai/ha): 100
Pre-emerge Herbicidal Activity CHEAL ([22]; rate 63 g ai/ha): 100
Pre-emerge Herbicidal Activity CHEAL ([22]; rate 250 g ai/ha): 100
